Counter-ions that a name gives are not always drawn. Like-named read-outs stand apart in the source and are kept apart here.
Molecular target: T1, CDK9/cyclin K (Homo sapiens, UniProt P50750)
T1 construct: purchased Invitrogen (ThermoFisher) PV4335
Experiment: TR-FRET Lanthascreen Eu Kinase Binding assay
Conditions: for Curve Class: classifies curves by quality of fit, efficacy and number of asymptotes; for Efficacy: difference between highest and lowest activity across concentration range; for Efficacy / Max Resp: in %
Text: The TR-FRET Lanthascreen Eu Kinase Binding assay for CDK9/cyclin K was purchased from ThermoFisher and performed as per manufacturer instructions.

[1] = concentration at which half maximal activity is observed, 7-point qHTS, read-out: AC50

T1 sequence (P50750 whole entry): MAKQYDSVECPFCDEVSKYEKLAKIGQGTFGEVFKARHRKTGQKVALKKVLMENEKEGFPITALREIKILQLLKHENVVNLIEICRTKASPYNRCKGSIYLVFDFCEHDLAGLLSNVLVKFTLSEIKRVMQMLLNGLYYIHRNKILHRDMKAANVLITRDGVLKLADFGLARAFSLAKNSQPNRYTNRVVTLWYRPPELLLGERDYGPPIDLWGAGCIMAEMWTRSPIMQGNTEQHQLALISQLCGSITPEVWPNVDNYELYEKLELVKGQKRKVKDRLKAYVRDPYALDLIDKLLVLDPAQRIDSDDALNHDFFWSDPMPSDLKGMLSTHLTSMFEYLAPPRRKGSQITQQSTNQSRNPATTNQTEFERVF
T1 sequence (O75909 whole entry partner): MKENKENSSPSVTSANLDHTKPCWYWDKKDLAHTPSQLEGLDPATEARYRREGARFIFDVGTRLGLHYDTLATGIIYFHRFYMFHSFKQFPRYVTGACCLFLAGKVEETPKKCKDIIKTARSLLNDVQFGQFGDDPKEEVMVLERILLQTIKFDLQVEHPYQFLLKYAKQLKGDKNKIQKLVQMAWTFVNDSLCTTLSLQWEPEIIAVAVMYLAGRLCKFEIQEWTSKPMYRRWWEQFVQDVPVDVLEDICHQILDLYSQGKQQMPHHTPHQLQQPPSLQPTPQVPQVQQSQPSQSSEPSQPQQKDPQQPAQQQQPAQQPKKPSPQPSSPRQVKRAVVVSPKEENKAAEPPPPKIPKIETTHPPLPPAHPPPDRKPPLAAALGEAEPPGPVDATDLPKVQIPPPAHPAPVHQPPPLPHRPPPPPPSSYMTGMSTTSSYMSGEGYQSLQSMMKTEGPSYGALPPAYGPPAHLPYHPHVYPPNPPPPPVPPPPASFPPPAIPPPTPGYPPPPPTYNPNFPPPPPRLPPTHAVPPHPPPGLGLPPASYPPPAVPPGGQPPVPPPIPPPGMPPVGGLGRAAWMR

SMILES | Curve Class | Efficacy | Max Resp | AC50 [1] [nM] | AC50 (AC50, concentration at which half maximal activity is observed, 7-point qHTS) [nM] | AC50 (logarithm of AC50, read-out: Log AC50 (converted)) [nM]
CC(C)c1c2cc(-c3ccnc(N[C@H]4CC[C@H](NC5CCOCC5)CC4)n3)ccc2nn1C [LY2857785] | 5 | -28.1 | -89.7 |  |  | 
Cc1ccc([N+](=O)[O-])cc1[S+](=O)([O-])N(C)/N=C\c1cnc2ccc(Br)cn12 [NCGC00387028-01, PIK-75] | 5 | 0.0 | -93.4 |  |  | 
COc1ccc(F)c(F)c1C(=O)c1cnc(NC2CCN([S+](C)(=O)[O-])CC2)nc1N [Compound R547, R547] | 5 | -13.4 | -94.3 |  |  | 
Cc1cc(Nc2cc(NC(=O)c3c(Cl)cccc3Cl)ccn2)nc(N)n1 [RO495] | -1.1 | -93.8 | -99.1 |  |  | 
O=C1NCCSc2c1sc1ccc(O)cc21 [kb-NB142-70] | -1.1 | -82.7 | -91.1 |  |  | 
O=C(Nc1ccnc(NC(=O)C2CC2)c1)c1c(Cl)cccc1Cl [GDC-046] | -1.1 | -83.7 | -94.2 | 33.6 |  | 31.6
C1=C/COCc2cc(ccc2OCCN2CCCC2)Nc2nccc(n2)-c2cccc(c2)COC/1 [Pacritinib] | -1.2 | -64.6 | -95.3 |  |  | 
Cc1ccc(C(N)=O)cc1Nc1nccc(-c2cn(C(C)C)c3cnccc23)n1 [NCGC00263020-01] | -1.1 | -90.3 | -99.8 |  |  | 
O=C(Nc1nc2ccccc2n1CCN1CCOCC1)c1cccc([N+](=O)[O-])c1 [IRAK-1-4 Inhibitor I] | -1.2 | -75.6 |  |  |  | 
CN(C)C/C=C/C(=O)Nc1cccc(C(=O)Nc2ccc(Nc3nccc(-c4cccnc4)n3)cc2)c1 [JNK-IN-7] | -1.1 | -86.0 | -91.6 |  |  | 
COc1ccc2c(NC(=O)Nc3cccc(C(F)(F)F)n3)ccnc2c1 [A 1070722] | -1.4 | -58.3 | -64.1 |  |  | 
Cc1ccc([N+](=O)[O-])cc1[S+](=O)([O-])N(C)/N=C/c1cnc2ccc(Br)cn12 [NCGC00346500-05, PIK-75] | 5 | -24.5 | -95.2 |  |  | 
Cc1ncc(-c2ccnc(Nc3ccc(S(C)(=O)=O)cc3)n2)n1C(C)C [AZD5438] | -1.2 | -75.7 | -98.3 |  |  | 
O=C1Cc2c([nH]c3ccc([N+](=O)[O-])cc23)-c2ccccc2N1 [Alsterpaullone] | -1.1 | -82.6 | -92.4 |  |  | 
CC(=O)c1c(C)c2cnc(Nc3ccc(N4CCNCC4)cn3)nc2n(C2CCCC2)c1=O [Palbociclib (PD-0332991) HCl] | -1.1 | -92.3 | -91.0 |  |  | 
Cn1cc(C2=C(c3cn(CCCSC(=N)N)c4ccccc34)C(=O)NC2=O)c2ccccc21 [Ro 31-8220 (mesylate)] | -1.3 | -42.0 | -60.6 |  |  | 
O=C1Nc2ccc(F)cc2/C1=C1\Nc2ccccc2\C1=N\O [5 -Fluoroindirubinoxime] | -1.1 | -80.2 | -86.1 |  |  | 

SMILES | Curve Class | Efficacy | Max Resp | AC50 [1] [nM] | AC50 (AC50, concentration at which half maximal activity is observed, 7-point qHTS) [nM] | AC50 (logarithm of AC50, read-out: Log AC50 (converted)) [nM]
O=C1Nc2ccccc2/C1=C1/Nc2ccccc2/C1=N\OCCC(O)CO (centres unmarked) [Indirubin_E8] | -1.1 | -83.1 | -81.2 |  |  | 
COc1ccc(-c2cc3nccn3c(Nc3ncccc3C(N)=O)n2)cc1OC [BAY 61-3606 (dihydrochloride)] | -1.1 | -91.8 | -92.1 |  |  | 
CN[C@@H]1C[C@H]2O[C@@](C)([C@@H]1OC)n1c3ccccc3c3c4c(c5c6ccccc6n2c5c31)C(=O)N[C@H]4O [UCN-01] | -1.1 | -83.5 | -93.0 |  |  | 
N#C/C(=C1\Nc2ccccc2S1)c1ccnc(NCCc2cccnc2)n1 [AS601245] | -1.2 | -79.8 | -85.8 |  |  | 
N#Cc1ccnc(Nc2cc(C3CCN(C4COC4)CC3)cc(N3CCC(F)(F)C3)n2)c1 [NCGC00384250-01] | -1.2 | -76.1 | -87.1 | 189 |  | 
O=C1Cc2c([nH]c3ccc(Br)cc23)-c2ccccc2N1 [Kenpaullone] | -1.1 | -80.5 | -37.7 | 336 |  | 
CN1CCN(Cc2ccc(Nc3ncc(Cl)c(Nc4ccccc4S(=O)(=O)N(C)C)n3)cc2)CC1 [TP-0903] | -1.2 | -74.0 | -96.9 | 68.7 |  | 
O=C(Nc1c[nH]nc1-c1nc2ccc(CN3CCOCC3)cc2[nH]1)NC1CC1 [AT9283] | -1.1 | -93.9 | -97.0 |  |  | 
CC(=O)c1cnc2ccc(-c3cc(Cl)c(O)c(Cl)c3)nc2c1N[C@H]1CC[C@H](CN(C)C)CC1 [OTSSP167] | -1.1 | -82.5 | -98.5 |  |  | 
CCCCNc1ncc(C(=O)NCc2ccc(-n3ccnc3)cc2)c(NC2CCC(O)CC2)n1 (stereo in doubt) [UNC2881] | -1.1 | -93.2 | -99.2 |  |  | 
CC(C)c1nn(-c2c(Cl)cccc2Cl)c2nc(Cc3ccc(OCCO)cc3)[nH]c(=O)c12 [Cdk/Crk Inhibitor] | -1.2 | -57.1 | -99.2 |  |  | 
COc1ccc(CNc2nc(N(CCO)CCO)nc3c2ncn3C(C)C)cc1 [CVT-313] | -1.1 | -101.1 | -99.9 | 532 |  | 
C[S+](=O)([O-])N1CCC(NC(=O)c2[nH]ncc2NC(=O)c2c(Cl)cccc2Cl)CC1 [NVP-LCQ195] | -1.2 | -72.2 | -98.8 |  |  | 
CC[C@H](CO)Nc1nc(NCc2ccccc2)c2ncn(C(C)C)c2n1 [Roscovitine] | -1.1 | -100.3 | -97.7 |  |  | 
O=[N+]([O-])c1cccc2[nH]c(CNc3nc(N4CCOCC4)nc4c3ncn4-c3ccsc3)nc12 [NCGC00386926-01] | -1.2 | -69.1 | -72.6 |  |  | 
Nc1ncnc2c1c(I)cn2[C@@H]1O[C@H](CO)[C@H](O)C1O (some centres unmarked) [5-Iodotubercidin] | -1.1 | -92.5 | -99.1 |  |  | 
O=C(NCCCNc1nc(Nc2cccc(NC(=O)N3CCCC3)c2)ncc1I)c1cccs1 [BX-795 hydrochloride] | -1.1 | -99.6 | 5.8 |  |  | 

Continued, in another order:

Curve Class | Efficacy | Max Resp | AC50 [1] [nM] | AC50 (AC50, concentration at which half maximal activity is observed, 7-point qHTS) [nM] | SMILES | AC50 (logarithm of AC50, read-out: Log AC50 (converted)) [nM]
-1.2 | -77.1 | -79.3 |  |  | Cc1cc(CN2CCN(c3c(Br)cnc4[nH]c(-c5ccc(N6CCN(C)CC6)cc5)nc34)CC2)no1 [CCT137690] | 
-1.1 | -97.1 | -96.7 |  |  | CC(C)c1cc(CNc2nc(Nc3cc(C4CC4)[nH]n3)cc(N3CCN(C)CC3)n2)on1 [XL-228] | 
-1.1 | -89.8 | -91.2 |  |  | O=C1NC(=O)/C(=C/c2ccc3nccc(-c4ccncc4)c3c2)S1 [GSK1059615] | 
-1.1 | -92.0 | -90.5 |  |  | Cc1nc(N)sc1-c1ccnc(Nc2ccc(N3CCOCC3)cc2)n1 [CYC-116] | 
-1.1 | -87.6 | -91.8 | 299 |  | C[C@@H](Oc1ccc2[nH]nc(/C=C/c3cnn(CCO)c3)c2c1)c1c(Cl)cncc1Cl [LY2874455] | 
-1.2 | -77.0 | -89.0 |  |  | O=C(O)c1ccc(-c2c[nH]c3ncc(-c4ccccc4)cc23)cc1C1CCCC1 [GSK-650394] | 
-1.1 | -93.0 | -90.2 |  |  | COc1ccc2c(c1)/C(=C/c1cnc[nH]1)C(=O)N2 [SU9516] | 
-1.1 | -87.0 | -80.6 |  | 134 | Nc1nc(NCCNc2ncc(-n3ccnc3)c(-c3ccc(Cl)cc3Cl)n2)ccc1[N+](=O)[O-] [CHIR98014] | 
-1.1 | -96.3 | -94.5 |  |  | COc1ccccc1-c1cc(Nc2cccc(C[S+](N)(=O)[O-])c2)ncn1 [LDC000067] | 
-1.2 | -79.9 | -87.0 |  |  | O=C1NC(=O)/C(=C/c2ccc3nccc(-c4ccncc4)c3c2)S1 [GSK-1059615] | 
-1.2 | -56.9 | -98.0 |  |  | OCCCNc1cc(-c2ccnc(Nc3cccc(Cl)c3)n2)ccn1 [CGP60474] | 
5 | -14.9 | -96.9 |  |  | O=C(NC1CCNCC1)c1[nH]ncc1NC(=O)c1c(Cl)cccc1Cl [AT7519] | 
-1.1 | -99.4 | -92.5 |  |  | O=C1Nc2ccc3ncsc3c2/C1=C/Nc1ccc([S+](=O)([O-])Nc2ccccn2)cc1 [GW8510] | 
-1.3 | -51.7 | -96.5 |  |  | CN[C@H]1CCN(C(=O)c2ccc(Nc3ncc(F)c(-c4cnc(C)n4C(C)C)n3)cc2)C1 [AZD-5597] | 
-1.1 | -93.4 | -97.5 |  |  | Nc1nc(Nc2ccc(S(N)(=O)=O)cc2)nn1C(=O)c1c(F)cccc1F [JNJ7706621] | 
-1.1 | -85.8 | -96.7 |  |  | N#CCNC(=O)c1ccc(-c2ccnc(Nc3ccc(N4CCOCC4)cc3)n2)cc1 [CYT-387] | 
-1.1 | -83.3 | -91.2 | 150 |  | COCCOc1ccc2c(c1)ncn2-c1ccc2cccc(N3CCC(N)CC3)c2n1 [CP-673451] | 

— article PMC6013488, “A widely-applicable high-throughput cellular thermal shift assay (CETSA) using split Nano Luciferase” (Scientific Reports, 2018)
